The values that follow come from ChEMBL document CHEMBL6182847, “Design, synthesis, and biological evaluation of novel aminopyrimidine derivatives as EGFR inhibitors” (Bioorg Med Chem Lett, 2025).

The subject of assay [1] is Epidermal growth factor receptor (Homo sapiens), P00533 [L858R,T790M,C797S]. To be noted: dose 500.0 nM.
Description: Inhibition of EGFR L858R/T790M/C797S mutant (unknown origin) at 500 nM relative to control
A further assay in a line: cells. To be noted: Mus musculus, Ba/F3 EGFR-T790M/C797S/L858R.
Assay [2] has as its target Epidermal growth factor receptor (Homo sapiens, UniProt P00533, C797S/L858R/T790M). In words: Inhibition of EGFR L858R/T790M/C797S mutant (unknown origin).
Assay [3] deals with Epidermal growth factor receptor (Homo sapiens, UniProt P00533). The assay is described as follows: Inhibition of wild-type EGFR (unknown origin).
A short description of assay [4]: Potency index, ratio of Brigatinib IC50 to test compound IC50 for antiproliferative activity against mouse Ba/F3 EGFR-T790M/C797S/L858R cells. Format: functional.

Chain of Epidermal growth factor receptor (Homo sapiens, UniProt P00533) (P00533 whole entry): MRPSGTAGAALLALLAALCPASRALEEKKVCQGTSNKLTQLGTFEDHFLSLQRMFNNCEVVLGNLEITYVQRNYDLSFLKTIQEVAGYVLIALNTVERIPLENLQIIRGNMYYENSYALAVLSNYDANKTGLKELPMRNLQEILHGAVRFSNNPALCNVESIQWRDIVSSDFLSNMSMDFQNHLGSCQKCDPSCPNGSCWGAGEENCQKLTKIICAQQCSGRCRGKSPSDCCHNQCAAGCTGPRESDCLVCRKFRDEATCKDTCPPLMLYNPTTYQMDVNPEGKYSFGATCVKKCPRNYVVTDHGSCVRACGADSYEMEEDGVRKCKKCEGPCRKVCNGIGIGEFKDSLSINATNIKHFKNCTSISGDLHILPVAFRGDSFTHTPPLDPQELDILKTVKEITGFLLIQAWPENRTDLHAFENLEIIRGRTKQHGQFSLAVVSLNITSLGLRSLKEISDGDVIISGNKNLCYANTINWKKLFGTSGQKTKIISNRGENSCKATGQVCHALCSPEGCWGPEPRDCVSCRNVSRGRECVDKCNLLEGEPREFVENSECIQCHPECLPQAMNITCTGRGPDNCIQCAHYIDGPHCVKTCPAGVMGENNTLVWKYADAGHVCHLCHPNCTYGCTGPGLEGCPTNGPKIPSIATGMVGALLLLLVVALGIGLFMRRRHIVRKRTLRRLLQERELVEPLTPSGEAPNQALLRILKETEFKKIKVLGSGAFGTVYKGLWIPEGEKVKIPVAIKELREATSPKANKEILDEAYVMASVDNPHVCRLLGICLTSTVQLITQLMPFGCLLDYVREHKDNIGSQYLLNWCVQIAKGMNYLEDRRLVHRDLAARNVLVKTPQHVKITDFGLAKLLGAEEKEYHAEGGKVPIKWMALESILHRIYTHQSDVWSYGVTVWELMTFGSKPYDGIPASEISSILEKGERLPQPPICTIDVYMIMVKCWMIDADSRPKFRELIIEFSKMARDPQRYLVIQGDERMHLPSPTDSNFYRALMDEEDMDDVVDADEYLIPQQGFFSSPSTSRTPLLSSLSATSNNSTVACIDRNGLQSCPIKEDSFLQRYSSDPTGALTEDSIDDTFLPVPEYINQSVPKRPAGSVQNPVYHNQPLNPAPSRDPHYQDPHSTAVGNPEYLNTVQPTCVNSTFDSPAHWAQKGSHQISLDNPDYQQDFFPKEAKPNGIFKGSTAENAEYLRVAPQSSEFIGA
Chain of Epidermal growth factor receptor (Homo sapiens), P00533 [L858R,T790M,C797S] (P00533 whole entry T790M/C797S/L858R): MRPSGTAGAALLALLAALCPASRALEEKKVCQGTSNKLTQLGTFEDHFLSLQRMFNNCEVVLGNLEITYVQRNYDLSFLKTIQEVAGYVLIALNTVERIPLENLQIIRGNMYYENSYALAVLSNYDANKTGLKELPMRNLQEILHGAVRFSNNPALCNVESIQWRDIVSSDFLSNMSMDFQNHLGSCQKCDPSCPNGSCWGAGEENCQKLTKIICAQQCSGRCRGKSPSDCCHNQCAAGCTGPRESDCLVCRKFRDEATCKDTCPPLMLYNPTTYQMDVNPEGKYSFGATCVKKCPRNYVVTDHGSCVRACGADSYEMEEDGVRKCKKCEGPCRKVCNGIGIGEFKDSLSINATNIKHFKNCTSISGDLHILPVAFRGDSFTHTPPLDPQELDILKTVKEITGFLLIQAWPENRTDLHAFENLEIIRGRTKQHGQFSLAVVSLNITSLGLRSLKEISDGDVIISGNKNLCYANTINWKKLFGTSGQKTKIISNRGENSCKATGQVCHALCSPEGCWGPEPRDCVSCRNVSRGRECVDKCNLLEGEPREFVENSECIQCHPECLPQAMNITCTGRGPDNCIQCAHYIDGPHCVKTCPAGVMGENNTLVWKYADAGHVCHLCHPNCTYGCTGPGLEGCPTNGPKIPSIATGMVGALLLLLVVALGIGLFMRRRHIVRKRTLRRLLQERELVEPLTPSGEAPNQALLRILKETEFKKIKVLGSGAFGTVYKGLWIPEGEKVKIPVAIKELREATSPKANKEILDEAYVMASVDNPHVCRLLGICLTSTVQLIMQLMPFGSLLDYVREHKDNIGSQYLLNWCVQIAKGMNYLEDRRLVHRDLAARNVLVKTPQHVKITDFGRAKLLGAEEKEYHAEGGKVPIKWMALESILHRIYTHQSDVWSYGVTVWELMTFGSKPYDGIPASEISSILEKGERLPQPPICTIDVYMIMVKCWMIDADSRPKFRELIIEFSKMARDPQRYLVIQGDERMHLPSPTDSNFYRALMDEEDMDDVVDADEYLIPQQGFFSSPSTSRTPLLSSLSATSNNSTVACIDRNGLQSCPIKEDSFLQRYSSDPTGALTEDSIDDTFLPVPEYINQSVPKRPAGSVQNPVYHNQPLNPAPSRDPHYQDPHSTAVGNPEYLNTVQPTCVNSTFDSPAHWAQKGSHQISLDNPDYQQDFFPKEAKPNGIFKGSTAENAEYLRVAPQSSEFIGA
Chain of Epidermal growth factor receptor (Homo sapiens, UniProt P00533, C797S/L858R/T790M) (P00533 25-1210 T790M/C797S/L858R limits assumed): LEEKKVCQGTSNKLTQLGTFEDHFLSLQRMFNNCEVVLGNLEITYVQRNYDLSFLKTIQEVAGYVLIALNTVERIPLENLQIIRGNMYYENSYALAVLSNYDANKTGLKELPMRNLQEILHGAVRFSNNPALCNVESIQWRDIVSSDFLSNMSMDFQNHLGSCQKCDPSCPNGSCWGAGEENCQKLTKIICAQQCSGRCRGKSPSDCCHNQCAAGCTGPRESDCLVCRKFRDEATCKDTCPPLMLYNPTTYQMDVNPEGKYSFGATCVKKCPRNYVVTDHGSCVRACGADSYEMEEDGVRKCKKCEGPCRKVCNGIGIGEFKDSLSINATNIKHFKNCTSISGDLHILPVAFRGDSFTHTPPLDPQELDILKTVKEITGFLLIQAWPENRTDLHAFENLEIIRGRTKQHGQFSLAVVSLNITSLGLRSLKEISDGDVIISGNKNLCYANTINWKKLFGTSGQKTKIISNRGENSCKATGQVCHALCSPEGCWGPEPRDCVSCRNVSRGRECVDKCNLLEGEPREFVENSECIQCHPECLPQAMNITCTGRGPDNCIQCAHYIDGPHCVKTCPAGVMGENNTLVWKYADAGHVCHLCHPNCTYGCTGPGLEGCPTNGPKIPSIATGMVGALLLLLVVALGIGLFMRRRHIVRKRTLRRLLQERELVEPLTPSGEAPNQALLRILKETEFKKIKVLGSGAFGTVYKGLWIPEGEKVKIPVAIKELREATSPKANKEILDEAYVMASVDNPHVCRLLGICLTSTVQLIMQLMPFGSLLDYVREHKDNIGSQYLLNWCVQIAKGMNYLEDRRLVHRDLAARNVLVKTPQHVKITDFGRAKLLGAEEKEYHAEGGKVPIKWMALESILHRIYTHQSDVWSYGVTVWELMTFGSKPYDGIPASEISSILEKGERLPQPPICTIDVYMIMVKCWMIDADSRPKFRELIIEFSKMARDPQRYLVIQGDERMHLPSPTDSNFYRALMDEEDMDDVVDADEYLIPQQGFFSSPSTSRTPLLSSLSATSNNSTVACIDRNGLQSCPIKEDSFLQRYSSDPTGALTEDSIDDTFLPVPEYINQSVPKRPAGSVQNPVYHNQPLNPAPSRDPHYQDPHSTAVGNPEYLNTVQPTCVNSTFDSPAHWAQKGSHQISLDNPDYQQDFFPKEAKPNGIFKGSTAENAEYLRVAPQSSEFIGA
Description for cells: Antiproliferative activity against mouse Ba/F3 EGFR-T790M/C797S/L858R cells

Regarding `CCCS(=O)(=O)Nc1cnn(-c2ccnc(Nc3cc(C)c(N4CCC(N5CCN(C)CC5)CC4)cc3OC)n2)c1`, the inhibition (as a rule, the share of the control response that was lost under treatment) in assay [1] was 89.1%.

Consider `COc1cc(N2CCC(N3CCN(C)CC3)CC2)ccc1Nc1ncc(Cl)c(Nc2ccccc2P(C)(C)=O)n1` [BRIGATINIB], for which 542 nM corresponded to half-maximal inhibition in the assay “cells” (IC50).

In turn, `CCCCS(=O)(=O)Nc1cnn(-c2ccnc(Nc3cc(C)c(N4CCC(N5CCN(C)CC5)CC4)cc3OC)n2)c1` returned an inhibition in assay [1] of 90.2%.

On to `COc1cc(N2CCC(N3CCN(C)CC3)CC2)c(C)cc1Nc1nccc(-n2cc(NC(=O)C=C(C)C)cn2)n1`, for which the IC50 (commonly the concentration at which inhibition is half-maximal) in the assay “cells” turned out to be 213 nM; in assay [2] it was 53.4 nM; in assay [3] it was 382 nM. Further, in assay [1], the inhibition was 87.2%.

With `CCC(=O)Nc1cnn(-c2ccnc(Nc3cc(C)c(N4CCC(N5CCN(C)CC5)CC4)cc3OC)n2)c1`, the inhibition in assay [1] came out at 85.4%.

For the compound `COc1cc(N2CCC(N3CCN(C)CC3)CC2)c(C)cc1Nc1ncc(Br)c(-n2ccc(-c3ccccc3NS(=O)(=O)C3CC3)n2)n1`, the concentration for half-maximal inhibition (IC50) in the assay “cells” was 340 nM; in assay [2], 93.8 nM; in assay [3] it was more than 5000 nM. In assay [1], this compound returned an inhibition of 81.8%.

`C=C(C)C(=O)Nc1cnn(-c2ccnc(Nc3cc(C)c(N4CCC(N5CCN(C)CC5)CC4)cc3OC)n2)c1` came in with an inhibition in assay [1] of 83.8%.

In assay [1], `C=CC(=O)Nc1ccccc1-c1ccn(-c2nc(Nc3cc(C)c(N4CCC(N5CCN(C)CC5)CC4)cc3OC)ncc2Br)n1` gave an inhibition of 79.9%.

For the compound `COc1cc(N2CCC(N3CCN(C)CC3)CC2)c(C)cc1Nc1nccc(-n2cc(NS(C)(=O)=O)cn2)n1`, the inhibition in assay [1] amounted to 88.1%.

With `C=CC(=O)Nc1cnn(-c2ccnc(Nc3cc(C)c(N4CCC(N5CCN(C)CC5)CC4)cc3OC)n2)c1`, the values for the 50% inhibitory concentration (IC50) (in the assay “cells”; in assay [2]; in assay [3]) were 238 nM, 78.2 nM and 485 nM, respectively. The inhibition in assay [1] is 80%.

For `COc1cc(N2CCC(N3CCN(C)CC3)CC2)c(C)cc1Nc1nccc(-n2cc(NC(=O)C3CC3)cn2)n1`, the IC50 came to 136 nM in the assay “cells”, 37.6 nM in assay [2] and 338 nM in assay [3]. The compound also gave an inhibition in assay [1] of 89.8%.

The compound `C/C=C/C(=O)Nc1cnn(-c2ccnc(Nc3cc(C)c(N4CCC(N5CCN(C)CC5)CC4)cc3OC)n2)c1` gave an inhibition in assay [1] of 81.9%.

As to `C=CC(=O)Nc1cnn(-c2ccnc(Nc3cc(C)c(N4CCN(C(C)C)CC4)cc3OC)n2)c1`, in assay [1], the inhibition is 46.1%.

For the compound `C=CC(=O)Nc1cnn(-c2ccnc(Nc3cc(C)c(N4CCC(N5CCCC5)CC4)cc3OC)n2)c1`, the inhibition in assay [1] was determined as 75.7%.

In turn, `C=CC(=O)Nc1cnn(-c2ccnc(Nc3cc(C)c(N4CCN(C(C)=O)CC4)cc3OC)n2)c1` had an inhibition in assay [1] of 48.8%.

Regarding `C=CC(=O)Nc1cnn(-c2ccnc(Nc3cc(C)c(N4CCOCC4)cc3OC)n2)c1`, in assay [1], the inhibition turned out to be 48.5%.

In assay [1], `COc1cc(N2CCC(N3CCN(C)CC3)CC2)c(C)cc1Nc1nccc(-n2cc(NC(=O)C(C)C)cn2)n1` had an inhibition of 80.4%.

`CCS(=O)(=O)Nc1cnn(-c2ccnc(Nc3cc(C)c(N4CCC(N5CCN(C)CC5)CC4)cc3OC)n2)c1` yielded an inhibition in assay [1] of 89%.

The compound `COc1cc(N2CCC(N3CCN(C)CC3)CC2)c(C)cc1Nc1nccc(-n2cc(NC(C)=O)cn2)n1` returned an inhibition in assay [1] of 82.6%.

Compound `C=CC(=O)Nc1cnn(-c2ccnc(Nc3cc(C)c(N4CCN(C)CC4)cc3OC)n2)c1` showed an inhibition in assay [1] of 47.3%.

In turn, `COc1cc(N2CCC(N3CCN(C)CC3)CC2)c(C)cc1Nc1nccc(-n2cc(NS(=O)(=O)C(C)C)cn2)n1` registered an inhibition in assay [1] of 90.2%.

In assay [1], `CCS(=O)(=O)Nc1ccccc1-c1ccn(-c2nc(Nc3cc(C)c(N4CCC(N5CCN(C)CC5)CC4)cc3OC)ncc2Br)n1` registered an inhibition of 71.4%.

In assay [1], `C=CC(=O)Nc1cnn(-c2ccnc(Nc3cc(C)c(N4CCC(N(C)C)CC4)cc3OC)n2)c1` showed an inhibition of 61.1%.

For the compound `COc1cc(N2CCC(N3CCN(C)CC3)CC2)c(C)cc1Nc1nccc(-n2cc(NS(=O)(=O)C3CC3)cn2)n1`, the IC50 in the assay “cells” is 97.1 nM; in assay [2] it was 18.8 nM; in assay [3] it was 159 nM. In assay [1], this compound returned an inhibition of 93.2%. For the same compound, the “Ratio IC50” value in assay [4] amounted to 5.

`C=CC(=O)Nc1cnn(-c2ccnc(Nc3cc(C)c(N4CCN(S(C)(=O)=O)CC4)cc3OC)n2)c1` gave an inhibition in assay [1] of 54.3%.
